Broadly, the pKa is the negative logarithm of the acid dissociation constant. Low values mean a group that gives up its proton readily, high ones a group that holds its proton tightly. A word on the half-life: it is how long it takes for the measured level to halve. Read a high half-life as slow loss. One may read the logD as the decadic logarithm of the distribution of all forms, ionised or not, between an organic phase and buffer at a given pH.

Values after ≈ are worked out from the molar mass of the structure shown.

The values below come from patent US20240216347A1, “BEZUCLASTINIB FORMULATIONS” (Cogent Biosciences, Inc., priority 2022, published 2024).

A short description of data set [1]: Pka of Bezuclastinib (Table 1). In kind it is physicochemical. The conditions noted are these: Weak Base. An excerpt: (§1) Bezuclastinib has a high melting point and is insoluble in aqueous and most organic solvents. No suitable salt or co-crystal was found.
Data set [2] in a line: Solubility in biorelevant media. The class given is physicochemical. Conditions: fassgf or other biorelevant, thermodynamic from solid; all biorelevant media (0.01N HCl, FaSSIF, SIF, FaSSGF), 37° C.; read-out: free drug concentration (solubility). The method, then:
Biorelevant media included 0.01N hydrochloric acid, Fast State Simulated Intestinal Fluid (FaSSIF) with and without bile salts, Simulated Intestinal Fluid (SIF) with various concentrations of bile salts (0, 0.5% and 1%) and Fasted State Simulated Gastric Fluid (FaSSGF). A saturated suspension was prepared in each media and the samples were stirred overnight using a magnetic stirrer. The free drug concentration was determined by subjecting the samples to 7 minutes in an ultracentrifuge at 470,000× gravity. A 100 μL aliquot was withdrawn and diluted in 5× in DMSO and Methanol and tested by the HPLC method described in Table 2. Six (6) replicates were performed in each media. In all cases, bezuclastinib was practically insoluble (free drug concentration ≤1.2 μg/mL).

For data set [3] the following is noted: human, in vivo, po.
From the text: (§2) This Example summarizes a single-center, open-label, 2-period, randomized, crossover study of Formulations A and B of bezuclastinib at single ascending dose levels in healthy adult subjects to assess pharmacokinetics and relative bioavailability. Subjects were randomized to receive either a single dose of Formulation A fasted, or a single dose of Formulation B fasted. After a washout period of 21 days, subjects were then crossed over to receive the other formulation. […] Blood draws were taken pre-dose, and 0.5, 1, 2, 3, 4, 6, 8, 12, 16, 24, 48, 72, 96, 120, 144, 168, 192, and 336 h post-dose.
Data set [4] in a line: Non-sink dissolution test in simulated intestinal fluid, no gastric transfer. In kind it is physicochemical. The conditions noted are these: SIF 0.5% bile salt, pH 6.5, 37° C., 1 mg API per mL. The method, then: Non-sink dissolution testing was used to determine the kinetic solubility as well as the extent and duration of supersaturation of amorphous dispersions. Spray dried samples were examined under non sink dissolution testing conditions in FIGS. 2-5. Non sink testing was performed with and without a gastric transfer at various bile salt concentrations in biorelevant media including simulated intestinal fluid at pH 6.5 and FaSSIF at pH 6.5. Total drug and free drug concentration were determined as described in Example 2.
Samples were loaded at a concentration of 1 mg API per mL of media. The SDD's tested were 10% and 20% drug loading HPMCAS-L SDD, 20% HPMCAS-H and 20% HPMCAS-L with 5 mg/mL HPMCAS-H added.

Another data set in a line: clinical. The conditions noted are these: human, in vivo, po.
Data set [5] can be described thus: Solubility in organic solvents. Conditions: organic solvent or mixture, thermodynamic from solid, 21° C., read-out: free drug concentration (solubility). In kind it is physicochemical. As to the method:
(Table 3). A saturated suspension was prepared in each solvent and the samples were stirred overnight using a magnetic stirrer. The free drug concentration was determined by subjecting the samples to 7 minutes in an ultracentrifuge at 470,000× gravity. A 100 μL aliquot was withdrawn and diluted in 5× in DMSO and Methanol and tested by the HPLC method. Three (3) replicates were performed in each solvent. Bezuclastinib was poorly soluble (free drug concentration <5.0 mg/mL), other than DMSO (free drug concentration <20 mg/mL).

A short description of data set [6]: LogD of Bezuclastinib (Table 1). The class given is physicochemical.
From the text: as §1

Data set [7] can be described thus: Influence of pH on solubility. In kind it is physicochemical. Conditions: Simulated Intestinal Fluid with 0.5% bile salts, fassgf or other biorelevant, thermodynamic from solid; SIF with 0.5% bile salts, 37° C., pH 4.0, 5.5 and 6.0; read-out: free drug concentration (solubility). As to the method: A saturated bezuclastinib suspension was prepared in each media and the samples were stirred overnight using a magnetic stirrer. The total drug concentration was determined by subjecting the samples to 3 minutes in a microcentrifuge at 19,500× gravity. The free drug concentration was determined by subjecting the samples to 7 minutes in an ultracentrifuge at 470,000× gravity. A 100 μL aliquot was withdrawn and diluted in 5× in DMSO and Methanol and tested by the HPLC method. Six (6) replicates were performed in each media. In all conditions, bezuclastinib was poorly soluble (free drug concentration <20 μg/mL).

Data set [8] in a line: Aqueous solubility of Bezuclastinib. The class given is physicochemical. The conditions noted are these: aqueous buffer. The method, then: Compound (I) was first disclosed in U.S. Pat. No. 9,676,748 B2 and U.S. Pat. No. 10,301,280 B2. In the almost 10 years since, Compound (I) has proven to be difficult to prepare in a tablet form suitable for commercial development. In particular, Compound (I) has a very high melting point (>365° C.) and is practically insoluble in aqueous conditions (0.32 ug/mL at pH 7.0), and most organic solvents. In addition, no suitable salt or co-crystal has been found for of Compound (I), which itself readily crystalizes when forming tablets. Finally, existing tablet forms of Compound (I) allowed a relatively small proportion of API to be loaded into the tablet form, necessitating repeated dosing of many tablets, potentially jeopardizing patient compliance.
as §1

For data set [9], the system named is cells with activating c-kit mutations in the catalytic region. The conditions noted are these: Ma et al., 2002; cited from earlier work.

From the text for clinical: as §2

For the molecule `Cc1n[nH]c(C(=O)Nc2cnc3[nH]c(-c4ccccc4)cc3c2)c1C` [Bezuclastinib, 3,4-dimethyl-N-(2-phenyl-1H-pyrrolo[2,3-b]pyridin-5-yl)-1H-pyrazole-5-carboxamide], the pKa in data set [1] came out at 2.86. The solubility was at most 1.2 µg/mL in data set [2]; under 20000 µg/mL in data set [5] (DMSO); under 5000 µg/mL in [5] (organic solvents of Table 3 other than DMSO); under 20 µg/mL in [7]; 0.32 µg/mL (≈ 0.966 µM) in data set [8] (aqueous conditions, pH 7.0, read-out: solubility in aqueous conditions); 0.31 µg/mL (≈ 0.935 µM) in [8] (aqueous medium, pH = 7.0, read-out: Aqueous solubility). The “median time to maximum concentration” value in [3] lay within 12 to 16 h. Moreover, in [4] (5 min), the “Microcentrifuge Assay @ 5 min (total drug)” value is 2.0 µg/mL. Also, in data set [4] (5 min), the “Ultracentrifuge Assay @ 5 min (free drug)” value was 1.5 µg/mL. Also, the “Microcentrifuge Assay @ 60 min (total drug)” value in data set [4] (60 min) was 3.4 µg/mL. Besides, the “Ultracentrifuge Assay @ 60 min (free drug)” value in data set [4] (60 min) is 1.6 µg/mL. Besides, the “Microcentrifuge Assay @ 6 hrs (total drug)” value in data set [4] (6 hrs) is 2.0 µg/mL. Moreover, in [4] (6 hrs), the “Ultracentrifuge Assay @ 6 hrs (free drug)” value is 1.7 µg/mL. The half-life in the data set “clinical” was 48.6 to 71.4 h. The molecule further had a logD in data set [6] of 3.46.

Regarding `Cc1ccc(NC(=O)c2ccc(CN3CCN(C)CC3)cc2)cc1Nc1nccc(-c2cccnc2)n1` [STI571], the “inhibition of cells with c-kit mutations in the catalytic region” value in data set [9] is “did not inhibit the cells”.
